# Measurements taken from patent US20240180883A1, “TREATMENT OF MIGRAINE” (Allergan Pharmaceuticals International Limited, priority 2020, published 2024).
# Where “and” joins values, the source holds several entries; their conditions need not be identical. Identical values can stand only once. Like-named read-outs stand apart in the source and are kept apart here.
# Experiments:
# [1] = Phase 1 hepatic impairment PK study, single 100 mg dose; format: in vivo, human; conditions: 100 mg single oral dose; for AUC(0-inf) / AUC(0-t) / Cmax / Tmax / Vd/F / half-life: both sexes, human, plasma, po, 100 mg; for Tmax: read-out: Tmax, median (min-max); for Vd/F: read-out: Vz/F, mean ±SD; for half-life: read-out: t1/2, mean ±SD (converted)
# From the text: The study was intended to enroll 24 male and female participants with hepatic impairment (8 mildly impaired, 8 moderately impaired, and 8 severely impaired) and 8 healthy male and female participants with normal hepatic function, aged 18 through 75 years, who were matched closely to the age, weight, and gender of the hepatically impaired groups.
# Participants with hepatic impairment were categorized according to the Child-Pugh classification. Participants with moderate hepatic impairment (Child-Pugh B classification) were not enrolled until 4 patients with mild hepatic impairment (Child-Pugh A classification) had completed the study; participants with severe hepatic impairment (Child-Pugh C classification) were not to be enrolled until 4 patients with moderate hepatic impairment had completed the study. […] Healthy participants with normal hepatic function were recruited after participants with hepatic impairment had been enrolled in the study, in order to match them as closely as possible to the hepatically impaired participants with respect to age, weight, and gender. Participants with normal hepatic function were matched specifically according to age, not to exceed 5 years between the means of the normal group and the 3 hepatically impaired groups. Weight range deviated<20% between the means of the normal group and the 3 hepatically impaired groups; and gender, as much as possible to match the ratio of the normal hepatic function group to the 3 hepatically impaired groups.
# Fasting continued for 4 hours after dosing. Because minimal to no accumulation was expected after once daily repeated dosing for ubrogepant, a single-dose study was considered adequate to satisfy the objectives of the present study.
# Sampling was also done at the following times for plasma protein binding determinations: Day 1 at 0 hour (predose) and 2 hours post dose.
# [2] = test system: BCRP and/or P-gp; experiment: Predicted interaction with BCRP and/or P-gp inhibitors
structure (smiles),measurement,setting,value
"C[C@@H]1[C@H](c2ccccc2)C[C@H](NC(=O)c2cnc3c(c2)C[C@@]2(C3)C(=O)Nc3ncccc32)C(=O)N1CC(F)(F)F [ubrogepant, (3′S)-N-((3S,5S,6R)-6-methyl-2-oxo-5-phenyl-1-(2,2,2-trifluoroethyl)piperidin-3-yl)-2′-oxo-1′,2′,5,7-etrahydrospiro[cyclopenta[b]pyridine-6,3′-pyrrolo[2,3-b]pyridine]-3-carboxamide]","CL/F, mean ±SD",[1]; mild hepatic impairment,66.38 ± 26.15 L/h
same,AUC0-∞ (exposure) higher than in normal hepatic function,[1]; moderate hepatic impairment,52% and 50%
same,"CL/F, mean ±SD",[1]; moderate hepatic impairment,49.78 ± 23.84 L/h
same,Cmax higher than in normal hepatic function,[1]; moderate hepatic impairment,25%
same,"CL/F, mean ±SD",[1]; normal hepatic function,69.01 ± 23.54 L/h
same,AUC0-∞ (exposure) higher than in normal hepatic function,[1]; severe hepatic impairment,115%
same,"CL/F, mean ±SD",[1]; severe hepatic impairment,31.23 ± 7.49 L/h
same,Cmax higher than in normal hepatic function,[1]; severe hepatic impairment,40%
same,AUC(0-inf),"[1]; mild hepatic impairment, read-out: AUC0-inf, mean ±SD",1760 ± 775 ng·h/mL
same,AUC(0-t),"[1]; mild hepatic impairment, read-out: AUC0-t, mean ±SD",1750 ± 767 ng·h/mL
same,Cmax,"[1]; mild hepatic impairment, read-out: Cmax, mean ±SD",411 ± 190 ng/mL
same,Tmax,[1]; mild hepatic impairment,1.5 h
same,Vd/F,[1]; mild hepatic impairment,559 ± 358 L
same,half-life,[1]; mild hepatic impairment,394 ± 356 min
same,AUC(0-t),"[1]; mild-impaired, read-out: Geometric LSM AUC0-t, Test",1610 ng·h/mL
same,AUC(0-inf),"[1]; mild-impaired, read-out: Geometric LSM AUC0-∞, Test",1630 ng·h/mL
same,Cmax,"[1]; mild-impaired, read-out: Geometric LSM Cmax, Test",375 ng/mL
same,AUC(0-inf),"[1]; moderate hepatic impairment, read-out: AUC0-inf, mean ±SD",2820 ± 2060 ng·h/mL
same,AUC(0-t),"[1]; moderate hepatic impairment, read-out: AUC0-t, mean ±SD",2780 ± 2020 ng·h/mL
same,Cmax,"[1]; moderate hepatic impairment, read-out: Cmax, mean ±SD",480 ± 189 ng/mL
same,Tmax,[1]; moderate hepatic impairment,2 h
same,Vd/F,[1]; moderate hepatic impairment,365 ± 130 L
same,half-life,[1]; moderate hepatic impairment,357 ± 161 min
same,AUC(0-t),"[1]; moderate-impaired, read-out: Geometric LSM AUC0-t, Test",2300 ng·h/mL
same,AUC(0-inf),"[1]; moderate-impaired, read-out: Geometric LSM AUC0-∞, Test",2320 ng·h/mL
same,Cmax,"[1]; moderate-impaired, read-out: Geometric LSM Cmax, Test",449 ng/mL
same,AUC(0-inf),"[1]; normal hepatic function, read-out: AUC0-inf, mean ±SD",1600 ± 533 ng·h/mL
same,AUC(0-t),"[1]; normal hepatic function, read-out: AUC0-t, mean ±SD",1590 ± 530 ng·h/mL
same,Cmax,"[1]; normal hepatic function, read-out: Cmax, mean ±SD",406 ± 219 ng/mL
same,AUC(0-t),"[1]; normal hepatic function, read-out: Geometric LSM AUC0-t, Reference",1510 ng·h/mL
same,AUC(0-inf),"[1]; normal hepatic function, read-out: Geometric LSM AUC0-∞, Reference",1520 ng·h/mL
same,Cmax,"[1]; normal hepatic function, read-out: Geometric LSM Cmax, Reference",360 ng/mL
same,Tmax,[1]; normal hepatic function,1.75 h
same,Vd/F,[1]; normal hepatic function,533 ± 320 L
same,half-life,[1]; normal hepatic function,336 ± 221 min
same,AUC(0-inf),"[1]; severe hepatic impairment, read-out: AUC0-inf, mean ±SD",3330 ± 705 ng·h/mL
same,AUC(0-t),"[1]; severe hepatic impairment, read-out: AUC0-t, mean ±SD",3310 ± 704 ng·h/mL
same,Cmax,"[1]; severe hepatic impairment, read-out: Cmax, mean ±SD",509 ± 75.8 ng/mL
same,Tmax,[1]; severe hepatic impairment,1.5 h
same,Vd/F,[1]; severe hepatic impairment,248 ± 29.9 L
same,half-life,[1]; severe hepatic impairment,337 ± 37.2 min
same,AUC(0-t),"[1]; severe-impaired, read-out: Geometric LSM AUC0-t, Test",3250 ng·h/mL
same,AUC(0-inf),"[1]; severe-impaired, read-out: Geometric LSM AUC0-∞, Test",3270 ng·h/mL
same,Cmax,"[1]; severe-impaired, read-out: Geometric LSM Cmax, Test",505 ng/mL
same,highest predicted potential increase in exposure,[2],≤ 2 fold
